In patent US8598202B2, “Aryl-hydroxyethylamino-pyrimidines and triazines as modulators of fatty acid amide hydrolase” (Janssen Pharmaceutica NV, priority 2008, dated 2013):
Counter-ions that a name gives are not always drawn.

Experiments:
FAAH = target: T1, FAAH (Homo sapiens, UniProt O00519); experiment: Assay Method 1: FAAH assay, 3H-anandamide hydrolysis in homogenate of T84 cells or SK-N-MC cells transfected with human FAAH
T1 sequence (O00519 1-579): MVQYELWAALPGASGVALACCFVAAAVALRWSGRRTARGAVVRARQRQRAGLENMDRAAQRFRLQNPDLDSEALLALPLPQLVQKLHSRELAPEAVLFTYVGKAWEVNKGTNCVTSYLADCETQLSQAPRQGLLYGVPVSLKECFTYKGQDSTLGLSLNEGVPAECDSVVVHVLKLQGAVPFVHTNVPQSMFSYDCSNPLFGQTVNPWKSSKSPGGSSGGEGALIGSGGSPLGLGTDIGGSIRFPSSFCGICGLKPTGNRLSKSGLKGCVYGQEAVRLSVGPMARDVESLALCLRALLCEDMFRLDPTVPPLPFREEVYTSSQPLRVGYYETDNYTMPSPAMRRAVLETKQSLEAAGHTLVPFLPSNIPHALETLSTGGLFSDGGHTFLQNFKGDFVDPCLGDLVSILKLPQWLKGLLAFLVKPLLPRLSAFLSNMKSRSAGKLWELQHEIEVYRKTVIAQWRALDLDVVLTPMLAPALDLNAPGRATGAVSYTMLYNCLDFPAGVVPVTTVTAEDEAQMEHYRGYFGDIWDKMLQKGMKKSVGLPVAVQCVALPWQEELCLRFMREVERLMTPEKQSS

Rat FAAH-1 = target: T2, Rat FAAH-1 (Rattus norvegicus, UniProt P97612); experiment: Assay Method 2: rat FAAH-1 assay, 3H-anandamide hydrolysis in homogenate of SK-N-MC cells transfected with rat FAAH
T2 sequence (P97612 1-579): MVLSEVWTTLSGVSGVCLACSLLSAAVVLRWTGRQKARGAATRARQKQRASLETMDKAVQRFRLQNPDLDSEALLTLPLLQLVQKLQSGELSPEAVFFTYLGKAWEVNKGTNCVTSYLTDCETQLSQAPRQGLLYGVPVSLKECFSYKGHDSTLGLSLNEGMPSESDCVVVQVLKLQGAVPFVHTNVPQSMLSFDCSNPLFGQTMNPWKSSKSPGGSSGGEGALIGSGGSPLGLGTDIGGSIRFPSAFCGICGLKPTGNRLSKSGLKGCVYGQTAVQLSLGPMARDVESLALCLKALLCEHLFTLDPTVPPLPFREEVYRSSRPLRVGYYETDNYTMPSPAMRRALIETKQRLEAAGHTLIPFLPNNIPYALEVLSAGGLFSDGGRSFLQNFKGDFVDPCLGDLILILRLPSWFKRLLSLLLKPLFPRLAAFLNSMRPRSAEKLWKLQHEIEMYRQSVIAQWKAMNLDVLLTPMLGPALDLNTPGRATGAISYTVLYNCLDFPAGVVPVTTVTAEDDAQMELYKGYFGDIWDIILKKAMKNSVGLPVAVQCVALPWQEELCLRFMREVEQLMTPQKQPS

SMILES | IC50 (FAAH) | IC50 (Rat FAAH-1)
O[C@@H](CNc1cc(-c2csc3ccccc23)ncn1)c1ccccc1 [Example 87, (1R)-2-{[6-(1-Benzothiophen-3-yl)pyrimidin-4-yl]amino}-1-phenylethanol trifluoroacetic acid salt] | 0.042 µM | 1.4 µM
Cn1ccc2cc(-c3cc(NC[C@H](O)c4ccccc4)ncn3)ccc21 [Example 90, (1R)-2-{[6-(1-Methyl-1H-indol-5-yl)pyrimidin-4-yl]amino}-1-phenylethanol trifluoroacetic acid salt] | 0.004 µM | 0.675 µM
O[C@@H](CNc1cc(-c2ccc(C(F)(F)F)c(Cl)c2)nc(C(F)(F)F)n1)c1ccccc1 [Example 93, (1R)-2-({6-[3-Chloro-4-(trifluoromethyl)phenyl]-2-(trifluoromethyl)pyrimidin-4-yl}amino)-1-phenylethanol trifluoroacetic acid salt] | 0.183 µM | 0.152 µM
CN(C)c1nc(NC[C@H](O)c2ccccc2)cc(-c2ccc(C(F)(F)F)c(Cl)c2)n1 [Example 101, (1R)-2-({6-[3-Chloro-4-(trifluoromethyl)phenyl]-2-(dimethylamino)pyrimidin-4-yl}amino)-1-phenylethanol trifluoroacetic acid salt] | 0.032 µM | 0.08 µM
O=[N+]([O-])c1ccc(C(O)CNc2cc(-c3ccc(OC(F)(F)F)cc3)ncn2)cc1 (centres unmarked) [Example 107, 1-(4-Nitrophenyl)-2-[(6-{4-[(trifluoromethyl)oxy]phenyl}pyrimidin-4-yl)amino]ethanol] | 0.24 µM | 0.32 µM
OC(CNc1cc(-c2ccc(OC(F)(F)F)cc2)ncn1)c1ccc(Cl)cc1 (centres unmarked) [Example 109, 1-(4-Chlorophenyl)-2-[(6-{4-[(trifluoromethyl)oxy]phenyl}pyrimidin-4-yl)amino]ethanol] | 0.15 µM | 0.042 µM
COc1ccc(C(O)CNc2cc(-c3ccc(OC(F)(F)F)cc3)ncn2)cc1 (centres unmarked) [Example 111, 1-[4-(Methyloxy)phenyl]-2-[(6-{4-[(trifluoromethyl)oxy]phenyl}-pyrimidin-4-yl)amino]ethanol] | 0.122 µM | 0.22 µM
COc1cc(C(O)CNc2cc(-c3ccc(OC(F)(F)F)cc3)ncn2)ccc1O (centres unmarked) [Example 112, 4-{1-Hydroxy-2-[(6-{4-[(trifluoromethyl)oxy]phenyl}pyrimidin-4-yl)amino]ethyl}-2-(methyloxy)phenol] | 0.524 µM | 0.76 µM
OC(CNc1cc(-c2ccc(OC(F)(F)F)cc2)ncn1)c1ccc(F)cc1 (centres unmarked) [Example 113, 1-(4-Fluorophenyl)-2-[(6-{4-[(trifluoromethyl)oxy]phenyl}pyrimidin-4-yl)amino]ethanol] | 0.018 µM | 0.041 µM
OC(CNc1cc(-c2ccc(OC(F)(F)F)cc2)ncn1)c1ccc(Cl)c(Cl)c1 (centres unmarked) [Example 114, 1-(3,4-Dichlorophenyl)-2-[(6-{4-[(trifluoromethyl)oxy]phenyl}-pyrimidin-4-yl)amino]ethanol] | 0.046 µM | 0.043 µM
OC(CNc1cc(-c2ccc(OC(F)(F)F)cc2)ncn1)c1ccccc1Cl (centres unmarked) [Example 115, 1-(2-Chlorophenyl)-2-[(6-{4-[(trifluoromethyl)oxy]phenyl}pyrimidin-4-yl)amino]ethanol] | 0.14 µM | 0.205 µM
OC(CNc1cc(-c2ccc(OC(F)(F)F)cc2)ncn1)c1cccc(Cl)c1 (centres unmarked) [Example 116, 1-(3-Chlorophenyl)-2-[(6-{4-[(trifluoromethyl)oxy]phenyl}pyrimidin-4-yl)amino]ethanol] | 0.09 µM | 0.11 µM
COc1cccc(C(O)CNc2cc(-c3ccc(OC(F)(F)F)cc3)ncn2)c1 (centres unmarked) [Example 117] | 0.032 µM | 0.022 µM
COc1ccccc1C(O)CNc1cc(-c2ccc(OC(F)(F)F)cc2)ncn1 (centres unmarked) [Example 118, 1-[2-(Methyloxy)phenyl]-2-[(6-{4-[(trifluoromethyl)oxy]phenyl}-pyrimidin-4-yl)amino]ethanol] | 0.093 µM | > 10 µM
C[C@H]([C@H](O)c1ccccc1)N(C)c1cc(-c2ccc(OC(F)(F)F)cc2)ncn1 [Example 120, (1R,2R)-2-[Methyl(6-{4-[(trifluoromethyl)oxy]phenyl}pyrimidin-4-yl)amino]-1-phenylpropan-1-ol] | > 10 µM | > 10 µM
C[C@@H]([C@H](O)c1ccccc1)N(C)c1cc(-c2ccc(OC(F)(F)F)cc2)ncn1 [Example 121, (1R,2S)-2-[Methyl(6-{4-[(trifluoromethyl)oxy]phenyl}pyrimidin-4-yl)amino]-1-phenylpropan-1-ol] | 0.58 µM | 3 µM

Now from value to compound:

IC50 (FAAH) | IC50 (Rat FAAH-1) | SMILES
0.018 µM | 5 µM | O[C@@H](CNc1cc(-c2ccc3[nH]ccc3c2)ncn1)c1ccccc1 [Example 85, (1R)-2-{[6-(1H-Indol-5-yl)pyrimidin-4-yl]amino}-1-phenylethanol trifluoroacetic acid salt]
0.065 µM | 0.033 µM | N#Cc1ccc(-c2cc(NC[C@H](O)c3ccccc3)ncn2)cc1F [Example 88, 2-Fluoro-4-(6-{[(2R)-2-hydroxy-2-phenylethyl]amino}pyrimidin-4-yl)benzonitrile trifluoroacetic acid salt]
1.6 µM | 1.4 µM | N#Cc1cc(-c2cc(NC[C@H](O)c3ccccc3)ncn2)ccc1F [Example 89, 2-Fluoro-5-(6-{[(2R)-2-hydroxy-2-phenylethyl]amino}pyrimidin-4-yl)benzonitrile trifluoroacetic acid salt]
0.003 µM | 0.057 µM | CC(C)Sc1ccc(-c2cc(NC[C@H](O)c3ccccc3)ncn2)cc1 [Example 91, (1R)-2-[(6-{4-[(1-Methylethyl)sulfanyl]phenyl}pyrimidin-4-yl)amino]-1-phenylethanol trifluoroacetic acid salt]
0.018 µM | 0.066 µM | O[C@@H](CNc1cc(-c2ccc(Cl)c(Cl)c2)ncn1)c1ccccc1 [Example 95, (1R)-2-{[6-(3,4-Dichlorophenyl)-pyrimidin-4-yl]amino}-1-phenylethanol]
0.043 µM | 1.4 µM | O[C@@H](CNc1cc(-c2ccc3sccc3c2)ncn1)c1ccccc1 [Example 100, (1R)-2-{[6-(1-Benzothiophen-5-yl)pyrimidin-4-yl]amino}-1-phenylethanol trifluoroacetic acid salt]
0.017 µM | 0.05 µM | CSc1nc(NC[C@H](O)c2ccccc2)cc(-c2ccc(C(F)(F)F)c(F)c2)n1 [Example 102, (1R)-2-({6-[3-Fluoro-4-(trifluoromethyl)phenyl]-2-(methylsulfanyl)pyrimidin-4-yl}amino)-1-phenylethanol trifluoroacetic acid salt]
0.305 µM | 0.35 µM | O[C@@H](CNc1ncnc(-c2ccc(C(F)(F)F)cc2)n1)c1ccccc1 [Example 103, (1R)-1-Phenyl-2-({4-[4-(trifluoromethyl)phenyl]-1,3,5-triazin-2-yl}amino)ethanol trifluoroacetic acid salt]
0.13 µM | 0.058 µM | O[C@@H](CNc1ncnc(-c2ccc(C(F)(F)F)c(Cl)c2)n1)c1ccccc1 [Example 104, (1R)-2-({4-[3-Chloro-4-(trifluoromethyl)phenyl]-1,3,5-triazin-2-yl}amino)-1-phenylethanol trifluoroacetic acid salt]
0.19 µM | 1 µM | O[C@@H](CNc1cc(-c2cccc(C(F)(F)F)c2)ncn1)c1ccccc1 [Example 105, (1R)-1-Phenyl-2-({6-[3-(trifluoromethyl)phenyl]pyrimidin-4-yl}amino)ethanol]
0.11 µM | 0.15 µM | OC(CNc1cc(-c2ccc(OC(F)(F)F)cc2)ncn1)c1ccc(C(F)(F)F)cc1 (centres unmarked) [Example 108, 2-[(6-{4-[(Trifluoromethyl)oxy]phenyl}pyrimidin-4-yl)amino]-1-[4-(trifluoromethyl)phenyl]ethanol]
0.017 µM | 0.055 µM | C[C@H](Nc1cc(-c2ccc(OC(F)(F)F)cc2)ncn1)[C@H](O)c1ccccc1 [Example 119, (1R,2S)-1-Phenyl-2-[(6-{4-[(trifluoromethyl)oxy]phenyl}pyrimidin-4-yl)amino]propan-1-ol]
